Columns and labels:
Format in all cases: in vivo
[1] = tested on: Echinochloa crus-galli var. crus-galli; test: Test Example 4: herbicidal effect by soil treatment (symbol H)
Method in brief: (§1)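 Seeds were sown in sterilized diluvial soil, covered with about 1.5 cm of soil, and the soil surface was sprayed with a water-diluted emulsion of the compound at a predetermined rate. Plants grew in a greenhouse at 25° C. to 30° C.; effects were scored visually 3 weeks after application.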

wheat [2] = test: Test Example 4: effect on crop by soil treatment (symbol e)
Method in brief: (§2)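 Crop seed is sown in spots together with several weed species in a box of sterilized diluvial soil. It is covered by about 1.5 cm of soil and kept in a greenhouse held between 25° C. and 30° C.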

Apera spica-venti = test: Test Example 5: herbicidal effect by foliage application, plastic box (symbol L); settings: 320 g/ha, 3 weeks after application
Method in brief: (§3)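 Emulsion formulation, diluted with water to the intended rate, was applied uniformly to leaves by small sprayer. Recipients were 14-day greenhouse-grown seedlings (25° C. to 30° C.). Assessment followed at 3 weeks.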

Lolium multiflorum Lam. = test: Test Example 4: herbicidal effect by soil treatment (symbol K)
Method in brief: as §1

Scirpus juncoides = test: Test Example 1: herbicidal activity, application before weed generation in submerged conditions (symbol B); settings: application herbicide amount 320 g/ha
Method in brief: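 Weed control was rated three weeks after treatment on a 0–5 scale, from 5% or lower up to 90% or more. Pre-emergence water-surface application of diluted emulsion at a predetermined rate was made on the day of sowing, in flooded (4 cm water) pots containing rice seedlings, kept at 25–30 °C under glass.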

Setaria viridis = test: Test Example 4: herbicidal effect by soil treatment (symbol G)
Method in brief: as §1

wheat [3] = test: Test Example 5: effect on crop by foliage application, plastic box (symbol e); settings: 320 g/ha, 3 weeks after application
Method in brief: (§4)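 Sterilized diluvial soil, plastic box (21 × 13 × 7 cm); spot sowing, ~1.5 cm soil cover; greenhouse 25–30° C.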

rapeseed = test: Test Example 5: effect on crop by foliage application, plastic box (symbol g); settings: 320 g/ha, 3 weeks after application
Method in brief: as §4

Alopecurus myosuroides = test: Test Example 4: herbicidal effect by soil treatment (symbol J)
Method in brief: as §1

rice = test: Test Example 4: effect on crop by soil treatment (symbol b)
Method in brief: as §2

Digitaria ciliaris = test: Test Example 5: herbicidal effect by foliage application, plastic box (symbol F); settings: 320 g/ha, 3 weeks after application
Method in brief: as §3

soybean = test: Test Example 5: effect on crop by foliage application, plastic box (symbol d); settings: 320 g/ha, 3 weeks after application
Method in brief: as §4

corn [4] = test: Test Example 4: effect on crop by soil treatment (symbol c)
Method in brief: as §2

corn [5] = test: Test Example 5: effect on crop by foliage application, plastic box (symbol c); settings: 320 g/ha, 3 weeks after application
Method in brief: as §4

Veronica persica = test: Test Example 5: herbicidal effect by foliage application, plastic box (symbol R); settings: 320 g/ha, 3 weeks after application
Method in brief: as §3

Stellaria media = test: Test Example 4: herbicidal effect by soil treatment (symbol P)
Method in brief: as §1

[6] = tested on: Echinochloa crus-galli var. crus-galli; test: Test Example 3: herbicidal effect by foliage application, Wagner pot (symbol H); settings: application herbicide amount 320 g/ha
Method in brief: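 Foliar spray of water-diluted emulsion formulation at a predetermined herbicide amount onto 14-day-old plants in flooded alluvial soil (water depth 0.1–0.5 cm), greenhouse 25–30 °C; rice sown alongside. Scored 3 wk post-application on set criteria.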

[7] = application herbicide amount 320 g/ha

Row | SMILES | L: Apera spica-venti, herbicidal effect grade (Apera spica-venti) | Herbicidal effect grade, B: Scirpus juncoides (Scirpus juncoides) | e: wheat, effect on crop grade (wheat [3]) | g: rapeseed, effect on crop grade (rapeseed) | F: Digitaria ciliaris, herbicidal effect grade (Digitaria ciliaris) | d: soybean, effect on crop grade (soybean) | c: corn, effect on crop grade (corn [5]) | R: Veronica persica, herbicidal effect grade (Veronica persica) | H (Echinochloa crus-galli var. crus-galli) herbicidal effect grade [1, 7] | e (wheat) effect on crop grade (wheat [2]; [7]) | K (Lolium multiflorum Lam.) herbicidal effect grade (Lolium multiflorum Lam.; [7]) | G (Setaria viridis) herbicidal effect grade (Setaria viridis; [7]) | J (Alopecurus myosuroides) herbicidal effect grade (Alopecurus myosuroides; [7]) | b (directly sowed rice plant) effect on crop grade (rice; [7]) | c (corn) effect on crop grade (corn [4]; [7]) | P (Stellaria media) herbicidal effect grade (Stellaria media; [7]) | herbicidal effect on H (Echinochloa crus-galli var. crus-galli), grade 0-5 [6] | other results
1 | CON=C(CC1CC(O)=C(c2c(C)cc(-n3cc(Cl)cn3)cc2C)C1=O)C(C)C (centres unmarked) [9-004] | 4 (Herbicidal ratio of 70% or higher and lower than 90%) | 2 (Herbicidal ratio of 20% or higher and lower than 40%) | 3 (Herbicidal ratio of 40% or higher and lower than 70%) | 3 (Herbicidal ratio of 40% or higher and lower than 70%) | 5 (Herbicidal ratio of 90% or more (almost completely withered)) | 0 (Herbicidal ratio of 5% or lower (almost no effect)) | 5 (Herbicidal ratio of 90% or more (almost completely withered)) | 0 (Herbicidal ratio of 5% or lower (almost no effect)) | – | – | – | – | – | – | – | – | – | Herbicidal effect grade, H: Echinochloa crus-galli var. crus-galli [1, 7]: 5 (Herbicidal ratio of 90% or more (almost completely withered)); Effect on crop grade, e: wheat (wheat [2]; [7]): 0 (Herbicidal ratio of 5% or lower (almost no effect)); Herbicidal effect grade, K: Lolium multiflorum Lam. (Lolium multiflorum Lam.; [7]): 4 (Herbicidal ratio of 70% or higher and lower than 90%); Herbicidal effect grade, G: Setaria viridis (Setaria viridis; [7]): 5 (Herbicidal ratio of 90% or more (almost completely withered)); Herbicidal effect grade, J: Alopecurus myosuroides (Alopecurus myosuroides; [7]): 5 (Herbicidal ratio of 90% or more (almost completely withered)); Effect on crop grade, b: directly sowed rice plant (rice; [7]): 0 (Herbicidal ratio of 5% or lower (almost no effect)); Effect on crop grade, c: corn (corn [4]; [7]): 0 (Herbicidal ratio of 5% or lower (almost no effect)); Herbicidal effect grade, P: Stellaria media (Stellaria media; [7]): 0 (Herbicidal ratio of 5% or lower (almost no effect)); H (Echinochloa crus-galli var. crus-galli) herbicidal effect grade ([6]; Table 24): 5 (Herbicidal ratio of 90% or more (almost completely withered))
2 | CC(CC1CC(O)=C(c2c(C)cc(C)cc2C)C1=O)=NOc1ccccc1 (centres unmarked) [1-057] | 1 (Herbicidal ratio of 5% or higher and lower than 20%) | 3 (Herbicidal ratio of 40% or higher and lower than 70%) | 0 (Herbicidal ratio of 5% or lower (almost no effect)) | 4 (Herbicidal ratio of 70% or higher and lower than 90%) | 3 (Herbicidal ratio of 40% or higher and lower than 70%) | 3 (Herbicidal ratio of 40% or higher and lower than 70%) | 0 (Herbicidal ratio of 5% or lower (almost no effect)) | 0 (Herbicidal ratio of 5% or lower (almost no effect)) | 4 (Herbicidal ratio of 70% or higher and lower than 90%) | 0 (Herbicidal ratio of 5% or lower (almost no effect)) | 5 (Herbicidal ratio of 90% or more (almost completely withered)) | 4 (Herbicidal ratio of 70% or higher and lower than 90%) | 4 (Herbicidal ratio of 70% or higher and lower than 90%) | 5 (Herbicidal ratio of 90% or more (almost completely withered)) | 0 (Herbicidal ratio of 5% or lower (almost no effect)) | 0 (Herbicidal ratio of 5% or lower (almost no effect)) | 4 (Herbicidal ratio of 70% or higher and lower than 90%) | –
3 | COCCON=C(C)CC1CC(O)=C(c2c(C)cc(C)cc2C)C1=O (centres unmarked) [1-041] | 5 (Herbicidal ratio of 90% or more (almost completely withered)) | 5 (Herbicidal ratio of 90% or more (almost completely withered)) | 5 (Herbicidal ratio of 90% or more (almost completely withered)) | 4 (Herbicidal ratio of 70% or higher and lower than 90%) | 5 (Herbicidal ratio of 90% or more (almost completely withered)) | 4 (Herbicidal ratio of 70% or higher and lower than 90%) | 5 (Herbicidal ratio of 90% or more (almost completely withered)) | 3 (Herbicidal ratio of 40% or higher and lower than 70%) | 5 (Herbicidal ratio of 90% or more (almost completely withered)) | 4 (Herbicidal ratio of 70% or higher and lower than 90%) | 5 (Herbicidal ratio of 90% or more (almost completely withered)) | 5 (Herbicidal ratio of 90% or more (almost completely withered)) | 5 (Herbicidal ratio of 90% or more (almost completely withered)) | 5 (Herbicidal ratio of 90% or more (almost completely withered)) | 4 (Herbicidal ratio of 70% or higher and lower than 90%) | 0 (Herbicidal ratio of 5% or lower (almost no effect)) | 5 (Herbicidal ratio of 90% or more (almost completely withered)) | –
4 | CON=C(C)CC1CC(OC(=O)C2=C(Br)CCC2)=C(c2c(C)cc(C)cc2C)C1=O (centres unmarked) [1-089] | – | 5 (Herbicidal ratio of 90% or more (almost completely withered)) | – | – | – | – | – | – | – | – | – | – | – | – | – | – | 5 (Herbicidal ratio of 90% or more (almost completely withered)) | H: Echinochloa crus-galli var. crus-galli, herbicidal effect grade ([1]; 320 g/ha): 5 (Herbicidal ratio of 90% or more (almost completely withered)); e: wheat, effect grade on crop (wheat [2]; 320 g/ha): 1 (Herbicidal ratio of 5% or higher and lower than 20%); L: Apera spica-venti, herbicidal effect (criteria 0-5) (Apera spica-venti): 5 (Herbicidal ratio of 90% or more (almost completely withered)); K: Lolium multiflorum Lam., herbicidal effect grade (Lolium multiflorum Lam.; 320 g/ha): 5 (Herbicidal ratio of 90% or more (almost completely withered)); G: Setaria viridis, herbicidal effect grade (Setaria viridis; 320 g/ha): 5 (Herbicidal ratio of 90% or more (almost completely withered)); e: wheat, effect on crop (criteria 0-5) (wheat [3]): 5 (Herbicidal ratio of 90% or more (almost completely withered)); g: rapeseed, effect on crop (criteria 0-5) (rapeseed): 4 (Herbicidal ratio of 70% or higher and lower than 90%); J: Alopecurus myosuroides, herbicidal effect grade (Alopecurus myosuroides; 320 g/ha): 5 (Herbicidal ratio of 90% or more (almost completely withered)); b: directly sowed rice plant, effect grade on crop (rice; 320 g/ha): 5 (Herbicidal ratio of 90% or more (almost completely withered)); F: Digitaria ciliaris, herbicidal effect (criteria 0-5) (Digitaria ciliaris): 5 (Herbicidal ratio of 90% or more (almost completely withered)); d: soybean, effect on crop (criteria 0-5) (soybean): 2 (Herbicidal ratio of 20% or higher and lower than 40%); c: corn, effect grade on crop (corn [4]; 320 g/ha): 5 (Herbicidal ratio of 90% or more (almost completely withered)); c: corn, effect on crop (criteria 0-5) (corn [5]): 5 (Herbicidal ratio of 90% or more (almost completely withered)); R: Veronica persica, herbicidal effect (criteria 0-5) (Veronica persica): 3 (Herbicidal ratio of 40% or higher and lower than 70%); P: Stellaria media, herbicidal effect grade (Stellaria media; 320 g/ha): 0 (Herbicidal ratio of 5% or lower (almost no effect))

Source: patent US11000033B2, “Ketone or oxime compound, and herbicide” (NISSAN CHEMICAL CORPORATION, priority 2014, dated 2021)
